From publication PMC4340626, “Neuronal Expression of the Human Neuropeptide S Receptor NPSR1 Identifies NPS-Induced Calcium Signaling Pathways” (PLoS ONE, 2015)
Entries after “also recorded” stand apart in the source; their conditions may differ. Where a SMILES comes first, the peptide text is derived from it.

Key:
IP3R = assay: IP3 receptor antagonist 2-APB against NPS-evoked calcium signals; assay type: cell-based, mouse
[1] = test system: transient receptor potential channel family; conditions: cited from earlier work
Description: In previous in vitro studies, NPSR1 has been expressed in HEK293 or CHO cells. These studies focused on comparing NPS and NPSR1 variants with respect to their Gαq and Gαs activity, i.e. their efficiency to induce intracellular calcium responses and cAMP production upon receptor stimulation, analyzing population responses from plate readers instead of confocal single-cell calcium imaging.

SERCA-ATPases = assay: SERCA inhibition with CPA: calcium leakage and effect on NPS-evoked calcium signals; assay type: cell-based, mouse
[2] = target: T1, human neuropeptide S receptor (NPSR1) (Homo sapiens, UniProt Q6W5P4); assay: Single-cell calcium imaging (Fluo4) of NPS-evoked calcium signals in hippocampus neurons expressing NPSR1-mCherry; assay type: cell-based
T1 construct: expressed in transfected cells; host or cells: primary hippocampal neurons of P0-P2 C57BL/6 mice, transduced with AAV6 AAV-NPSR1-TS-mCherry-ER (hSyn promoter)
T1 sequence (Q6W5P4 1-371): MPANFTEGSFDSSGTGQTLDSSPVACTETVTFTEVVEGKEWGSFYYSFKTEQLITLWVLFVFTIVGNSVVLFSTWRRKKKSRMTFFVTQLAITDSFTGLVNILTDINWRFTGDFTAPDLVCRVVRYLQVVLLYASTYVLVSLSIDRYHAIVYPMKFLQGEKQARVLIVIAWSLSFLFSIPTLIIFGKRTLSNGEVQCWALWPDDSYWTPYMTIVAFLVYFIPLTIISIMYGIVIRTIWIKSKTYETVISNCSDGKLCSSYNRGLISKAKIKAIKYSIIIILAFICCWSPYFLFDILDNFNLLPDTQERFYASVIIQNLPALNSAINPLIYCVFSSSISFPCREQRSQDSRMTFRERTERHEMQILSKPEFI

NPSR1 [3] = assay: NPSR1 antagonist SHA68 against NPS-evoked calcium signals in NPSR1-expressing hippocampus neurons; assay type: cell-based, human
[4] = test system: untransfected hippocampus neurons; assay: Calcium imaging of NPS in untransfected hippocampus neurons (control); assay type: cell-based, mouse; conditions: NPS 500 nM, 936 untransfected neurons
[5] = test system: ryanodine receptors (RyR); assay: Ryanodine receptor contribution to NPS-evoked calcium signals; assay type: cell-based, mouse; conditions: NPS 500 nM, mean ± SD
[6] = test system: NPSR1-expressing hippocampus neurons, influx of extracellular calcium; assay: NPS-evoked calcium signals in calcium-free solution / slow component (calcium influx); assay type: cell-based, mouse; conditions: NPS 500 nM, mean ± SD
[7] = test system: store-operated calcium entry (SOCE); assay: Store-operated calcium entry on re-addition of Ca2+ after NPS in calcium-free solution; assay type: cell-based, mouse; conditions: NPS 500 nM, n = 47 cells, mean ± SD
SOCE [8] = assay: SOCE blockers on slow component of NPSR1-evoked calcium signals; assay type: cell-based, mouse; conditions: NPS 500 nM
[9] = test system: voltage activated calcium channels (Cav); assay: Cav blocker cocktail on NPS-evoked calcium signals; assay type: cell-based, mouse; conditions: NPS 500 nM, first application, 148 neurons; mean ± SD
[10] = test system: Colo205 cells expressing NPSR1; conditions: cited from earlier work
Description: (§1) Despite these numerous biological functions, little is known about the molecular mechanisms underlying NPS receptor activity. […] However, the intracellular pathways downstream to NPSR1 activation have not been identified in deta ...

human NPSR1 variants = conditions: HEK293 or CHO cells; ref [1],[10],[23]–[25]; cited from earlier work
Description: as §1

NPSR1 [11] = conditions: cited from earlier work
SOCE [12] = test system: SOCE; parameters: method as in PMID 12149283, PMID 2173565, PMID 18285445, PMID 21541286; conditions: non-excitable cells and neurons; ref [36]–[38], [39]; cited from earlier work
STIM-mediated SOCE = conditions: HeLa cells overexpressing STIM1; ref [50]; cited from earlier work
Description: Store-operated calcium channels (SOCs) responsible for SOCE are known to be composed by the calcium release-activated calcium modulator 1 (ORAI) and members of the transient receptor potential type c (TRPC) channel families. Channel-activation is induced by interaction with the ER calcium sensor stromal interaction molecule (STIM).

[13] = test system: NPSR1-mediated calcium signals (action potentials suppressed); assay type: cell-based, mouse
[14] = repeated NPS 500 nM, 675 s interval, 111 neurons, mean ± SD, ANOVA p = 0.0133

2-aminoethoxydiphenyl borate [2-APB]
effect of 2-APB on responses to NPS (IP3R): prevented responses to NPS | normalized mean fluorescence amplitude evoked by NPS after 2-APB washout (IP3R): 2.2 ± 2.13 | normalized mean fluorescence amplitude evoked by NPS in presence of 2-APB (IP3R): 0.39 ± 0.61 | modulation of transient receptor potential channel family members [1]: modulates several members of the transient receptor potential channel family

CC(O)=C1C(=O)C2C3c4cccc5[nH]cc(c45)CC3C(C)(C)N2C1=O (centres unmarked) [CPA, cyclopiaconic acid]
normalized mean amplitude evoked by NPS after CPA (SERCA-ATPases; CPA 30 μM (500–650 s), NPS 500 nM, n = 397, mean ± SD, vs baseline p = 0.9992): 0.27 ± 0.4 | transient increase in cytosolic calcium evoked by CPA (fluorescence amplitude) (SERCA-ATPases; CPA 30 μM, 397 neurons, mean ± SD): 1.6 ± 1.17 | effect of CPA on NPSR1-mediated calcium signals (SERCA-ATPases; CPA 30 μM, NPS 500 nM, n = 397, ANOVA p < 0.0001): abolished NPSR1-mediated calcium signals

CSCC[C@H](NC(=O)CNC(=O)[C@@H](NC(=O)CNC(=O)[C@@H](NC(=O)CNC(=O)[C@H](CC(N)=O)NC(=O)[C@H](CCCNC(=N)N)NC(=O)[C@H](Cc1ccccc1)NC(=O)[C@@H](N)CO)C(C)C)[C@@H](C)O)C(=O)N[C@@H](CCCCN)C(=O)N[C@@H](CCCCN)C(=O)N[C@H](C(=O)N[C@@H](CO)C(=O)N[C@@H](Cc1ccccc1)C(=O)N[C@@H](CCC(N)=O)C(=O)N[C@@H](CCCNC(=N)N)C(=O)N[C@@H](C)C(=O)N[C@@H](CCCCN)C(=O)N[C@@H](CO)C(=O)O)[C@@H](C)O [NPS, neuropeptide S] (H-SFRNGVGTGMKKTSFQRAKS-OH; N-terminus and C-terminus assumed)
increase in normalized mean fluorescence (f/f0) over baseline [2]: 3.5 ± 2.9 | rise time of NPSR1-dependent calcium signal (5–95% of max) ([2]; NPS 500 nM, initial rapid component, mean ± SD): 9.47 ± 5.77 s | decay time of NPSR1-dependent calcium signal (95–5% of max) ([2]; NPS 500 nM, slower recovery phase, mean ± SD): 132.71 ± 94.11 s | normalized mean fluorescence amplitude, 1st application [2, 14]: 3.6 ± 3.1 | normalized mean fluorescence amplitude, 2nd application [2, 14]: 3.2 ± 3.3 | normalized mean fluorescence amplitude, 3rd application [2, 14]: 2.4 ± 2.3 | normalized mean fluorescence amplitude, NPS before SHA68 (NPSR1 [3]; NPS 250 nM, 204 neurons, mean ± SD): 2.9 ± 1.8 | calcium response to NPS in untransfected neurons [4]: no increase in normalized mean fluorescence intensity could be detected; also recorded: calcium responses could not be detected | mean fluorescence amplitude evoked by NPS before CPA (SERCA-ATPases; NPS 500 nM, 397 neurons, mean ± SD): 4.4 ± 2.69 | normalized mean fluorescence amplitude evoked by NPS, first application before 2-APB (IP3R; NPS 500 nM, 166 neurons, mean ± SD): 3.86 ± 2.34 | normalized mean fluorescence amplitude evoked by NPS prior to ryanodine ([5]; 136 neurons): 2.7 ± 1.48 | normalized mean fluorescence amplitude, control recordings without ryanodine, first NPS application ([5]; 155 control neurons): 2.35 ± 1.9 | normalized mean fluorescence amplitude, control recordings without ryanodine, second NPS application ([5]; 155 control neurons): 1.74 ± 1.4 | amplitude of second NPS application normalized to the first, control cells ([5]; no ryanodine): 0.77 ± 0.35 | integral of response amplitude over time, slow component, control conditions ([6]; 3 mM CaCl2, 229 cells): 36.6 ± 8.3 x 10^4 (arbitrary units) | integral of response amplitude over time, slow component, Ca2+-free solution ([6]; Ca2+-free, 5 mM EGTA, 65 neurons, t-test p < 0.0001): 23.4 ± 3.9 x 10^4 (arbitrary units) | amplitude of initial fast component of NPS-evoked calcium signal, calcium-free conditions ([6]; nominally calcium-free, 5 mM EGTA, 65 neurons, t-test vs control p = 0.1054): 2.9 ± 1.9 | integral of response amplitude after re-addition of Ca2+, NPS applied once again under Ca2+-free conditions ([7]; ANOVA p < 0.0001): 5.9 ± 4.9 x 10^4 (arbitrary units) | integral of response amplitude after re-addition of Ca2+, first NPS application under calcium-free conditions ([7]; control without NPS 2.1 ± 3.2 x 10^4): 14.8 ± 7.2 x 10^4 (arbitrary units) | integral of response amplitude of slow component, control conditions (no SOCE blocker) (SOCE [8]; 229 cells, mean ± SD): 36.6 ± 8.3 x 10^4 (arbitrary units) | integral of response amplitude during recovery phase, control conditions [9]: 36.2 ± 7.5 x 10^4 (arbitrary units) | mean fluorescence amplitude evoked by NPS, first application before U73122 (PLC): 3.44 ± 1.27 | cell proliferation and MAP kinase phosphorylation [10]: dose-dependent stimulation of cell proliferation and MAP kinase phosphorylation | calcium mobilization and cAMP accumulation (human NPSR1 variants): elicit calcium mobilization and cAMP accumulation

O=C(NCc1ccc(F)cc1)N1CCN2C(=O)OC(c3ccccc3)(c3ccccc3)C2C1 (centres unmarked) [SHA68, 3-oxo-1,1-diphenyl-tetrahydro-oxazolo[3,4-a]pyrazine-7-carboxylic acid 4-fluoro-benzylamide]
effect of SHA68 on NPS-evoked Ca2+ signals (NPSR1 [3]): NPS application failed to induce Ca^2+ signals in the same neurons; also recorded: reduced the effect of NPS to a level non-significantly different from baseline | normalized mean fluorescence amplitude evoked by NPS after washout of SHA68 (NPSR1 [3]): 1.2 ± 1.6 | normalized mean fluorescence amplitude evoked by NPS in presence of SHA68 (NPSR1 [3]): 0.5 ± 0.7 | effect on NPS-mediated calcium mobilization (NPSR1 [11]): blocks NPS-mediated calcium mobilization

COc1ccc(CCCOC(Cn2ccnc2)c2ccc(OC)cc2)cc1 (centres unmarked) [SKF96365]
effect on duration and amplitude of slow component of NPSR1-evoked calcium signals (SOCE [8]; ML-9 50 μM, SKF96365 15 μM): consistently reduced the duration and amplitude of the slow component | integral of response amplitude of slow component in presence of SKF96365 (SOCE [8]; SKF96365 15 μM (300 s pre-incubation), 127 cells, mean ± SD): 30.42 ± 3.8 x 10^4 (arbitrary units) | inhibition of SOCE (SOCE [12]): inhibit SOCE | inhibition of STIM-mediated SOCE (STIM-mediated SOCE): inhibit STIM-mediated SOCE

NC1=N[C@H](O)[C@H]2[C@H]3O[C@]4(O)O[C@@H]([C@@H](O)[C@@]2(N1)[C@@H]4O)[C@]3(O)CO [TTX, tetrodotoxin]
effect of TTX on NPSR1-mediated calcium signals [13]: not affected

COc1ccc2c(c1)CC[C@@H]1[C@@H]2CC[C@]2(C)[C@@H](NCCCCCCN3C(=O)C=CC3=O)CC[C@@H]12 [U73122]
effect of U73122 on NPS-mediated calcium release (PLC): abolished NPS-mediated calcium release | mean fluorescence amplitude when U73122 and NPS were co-applied (PLC): 0.14 ± 0.14

ryanodine
normalized mean fluorescence amplitude evoked by NPS in presence of ryanodine ([5]; ryanodine 50 μM (300 s pre-incubation), 136 neurons, ANOVA p < 0.0001): 0.51 ± 0.37 | amplitude of second NPS application normalized to the first, RyRs blocked ([5]; ryanodine 50 μM, t-test vs control p < 0.0001): 0.24 ± 0.25
